# Test: Dissolution times of calcium and magnesium in water at pH 7
# Format: physicochemical
# Conditions: water pH 7
# Description: The dissolution times for calcium and magnesium were measured by dissolving each in a solution of water having a pH of 7. 331 mg of calcium was placed in a beaker containing the solution an allowed to dissolve. 165 mg of magnesium was then placed in a second beaker and dissolved. The results are listed below in Table 1 and shown graphically in FIG. 1.
smiles,measurement,setting,value
"[Ca+2] [CALCIUM, calcium]","Dissolution, percent (%)",dissolution time 0 min,0%
same,"Dissolution, percent (%)",dissolution time 15 min,99.7%
same,"Dissolution, percent (%)",dissolution time 30 min,98.79%
same,"Dissolution, percent (%)",dissolution time 45 min,98.19%
same,"Dissolution, percent (%)",dissolution time 60 min,99.09%
same,"Dissolution, percent (%)",dissolution time 75 min,96.79%
same,"Dissolution, percent (%)",dissolution time 90 min,97.89%
same,"Dissolution, percent (%)",dissolution time 105 min,100%
same,"Dissolution, percent (%)",dissolution time 120 min,99.09%
"[Mg+2] [MAGNESIUM, magnesium]","Dissolution, percent (%)",dissolution time 0 min,0%
same,"Dissolution, percent (%)",dissolution time 30 min,4.93%
same,"Dissolution, percent (%)",dissolution time 60 min,10.61%
same,"Dissolution, percent (%)",dissolution time 90 min,16.48%
same,"Dissolution, percent (%)",dissolution time 120 min,21.76%
same,"Dissolution, percent (%)",dissolution time 150 min,26.61%
same,"Dissolution, percent (%)",dissolution time 180 min,31.82%
same,"Dissolution, percent (%)",dissolution time 210 min,36.67%
same,"Dissolution, percent (%)",dissolution time 240 min,41.82%
same,"Dissolution, percent (%)",dissolution time 270 min,46.79%
same,"Dissolution, percent (%)",dissolution time 300 min,50.67%
same,"Dissolution, percent (%)",dissolution time 330 min,55.21%
same,"Dissolution, percent (%)",dissolution time 360 min,58.91%

# From US6887492B2, “Magnesium plus interactive agent delivery” (Leiner Health Services Corp., priority 2000, dated 2005)
